One data set addresses protein kinase C. Put plainly: [3H]PDBu binding to partially purified protein kinase C. The note with it: read-out: Ki, competition of [3H]PDBu binding to protein kinase C; for comparison; mean±range, 2 experiments. The method, then:
(§1) Incubation was for 30 min at 37° C., after which the cells were chilled, an aliquot removed to determine total counts, and bound counts determined by filtration.

Data set [1] relates to C3H10T1/2 cells. The data set is described as follows: Release of [3H]arachidonic acid metabolites in C3H10T1/2 cells. Type of data set: cell-based. The settings on record: Mus musculus, C3H 10T1/2, read-out: Half-maximally effective concentration, release of arachidonic acid metabolites. The source says: (§2) Well-characterized biological responses to the phorbol esters include inhibition of binding of epidermal growth factor and release of arachidonic acid metabolites [Dell'Aquila et al.: Cancer Res. 48:3702-3708, (1988)].

For data set [2], the system named is HIV-1 (RF variant) in CEM-SS cells. The data set is described as follows: XTT-tetrazolium anti-HIV assay (HIV-1-infected CEM-SS cells). It counts as cell-based. The note with it: 50 nM. The source says: (§3) Cancer Inst. […] Cancer Inst. 81:1254-1258, (1989)] but with several modifications.
(§4) Philadelphia: Lippincott, 1988, pp. 305-317; Weislow et al.: J. Nat. Cancer Inst. […] Cancer Inst. 81:1254-1258, (1989)].
On the technique in general: Tetrazolium dyes change colour on reduction, which living cells bring about.

The test system of data set [3] is CEM-SS cells. It counts as cell-based, human.
Text: as §3, §4

The next data set is described as follows: in vitro. The settings on record: human, cem-ss cells. As to the method: (§5) Trypan blue dye exclusion was employed for secondary evaluation of drug toxicity and antiviral protection over time. A 50 μl aliquot of cells was removed from each test well and mixed with 100 μl of 0.4% trypan blue. The percentage of viable cells was determined microscopically by direct hemocytometer counts.

The subject of data set [4] is CEM-SS cells. Put plainly: in vitro. The note with it: HIV-1-infected, prostratin-treated (FIG. 4). As to the method:
as §5

The test system of data set [5] is C3H10T1/2 cells. Put plainly: Inhibition of 125I-epidermal growth factor binding in C3H10T1/2 cells. It counts as cell-based.
Text: as §2

Data set [6] concerns HIV-1 (RF variant) in CEM-SS cells. Put plainly: microbe, parasite or virus in culture. The note with it: Human immunodeficiency virus 1, CEM-SS, 144 h, read-out: Concentration at which syncytium formation (infectious virions) is strikingly inhibited (as low as). The method, then:
(§6) The XTT-tetrazolium anti-HIV assay was performed on crude extracts, chromatographic fractions and pure compounds as previously described [Weislow et al.: J. Nat. Cancer Inst. 81:577-586, (1989) and Gustafson et al.: J. Nat. Cancer Inst. 81:1254-1258, (1989)] but with several modifications. The human T-lymphoblastic cell line CEM-SS [Nara et al.: AIDS Res. Hum. […] Concentrated pellets of CEM-SS cells were incubated with the free virus for 1 hour at 37° C. The cells were then diluted and inoculated into round-bottomed 96-well microtiter plates (Corning) at a density of 5000 cells/well. Test compounds and the appropriate controls were then added to the wells, and the plates were incubated for 6 days. At the end of the incubation period cell growth parameters and HIV-1 activities were determined.
(§7) Aliquots of supernatant fluid from the test wells of the tetrazolium assay were removed prior to the time of XTT addition for quantitation of residual infectious virus using the syncytium assay described by Nara et al. [Nara et al.: AIDS Res. Hum. Retroviruses 3:283:302, (1987)].

A further data set deals with HIV-1 p24. The data set is described as follows: microbe, parasite or virus in culture. The settings on record: Human immunodeficiency virus 1, 144 h, read-out: Concentration at which p24 viral antigen production is strikingly inhibited (as low as). The method, then: as §6, §7
In data set [7] the test system is CEM-SS cells. It counts as binding, human. The note with it: for Ki: read-out: Ki, inhibition of [3H]PDBu binding to CEM cells. The method, then:
as §1
Binding affinities of phorbol esters in cells are typically lower than those obtained with reconstituted protein kinase C [Blumberg et al.: in Mechanism of Tumor Promotion, Vol. 3. Tumor Promotion and Cocarcinogenesis in vitro, (Slaga T. J., ed.) Boca Raton, Fla.: CRC Press, 1984, pp. 143-184], presumably reflecting the role of cellular calcium and phospholipid composition on binding [Konig et al.: J. Cell. Biochem. 7:255-265, (1985)]. […] The usual binding protocol were cells omits serum, because of reportedly variable effects of serum on binding [Blumberg et al.: in Mechanism of Tumor Promotion, Vol. 3. Tumor Promotion and Cocarcinogenesis in vitro, (Slaga T. J., ed.) Boca Raton, Fla.: CRC Press, 1984, pp. 143-184].

The conditions of data set [8]: cited from earlier work.

Like-named read-outs stand apart in the source and are kept apart here.

As usually defined, the Ki is the dissociation constant of the complex between target and ligand, obtained from inhibition or displacement. Usually viability stands for a per cent measure of how many cells are alive, often set against a control. Lower therefore signals more harm to the cells.

With `CC1=C[C@H]2[C@@]3(O)[C@H](C)C[C@]4(OC(=O)C(C)C)[C@H]([C@@H]3C=C(CO)C[C@]2(O)C1=O)C4(C)C` [12-deoxyphorbol 13-isobutyrate], on protein kinase C, the Ki stood at 2.1 ± 0.1 nM.
On to `CCCC(=O)O[C@@H]1[C@@H](C)[C@@]2(O)[C@@H](C=C(CO)C[C@]3(O)C(=O)C(C)=C[C@@H]23)[C@@H]2C(C)(C)[C@]12OC(=O)CCC` [PDBu, phorbol 12,13-dibutyrate, reference compound], for which the EC50 in the data set with C3H10T1/2 cells [1] is 24 nM.
As to `CCCCCCCCCCCCCC(=O)O[C@@H]1[C@@H](C)[C@@]2(O)[C@@H](C=C(CO)C[C@]3(O)C(=O)C(C)=C[C@@H]23)[C@@H]2C(C)(C)[C@]12OC(C)=O` [PMA, phorbol 12-myristate 13-acetate, reference compound], in data set [2], the “Protection against HIV-1” value is “protective against HIV-1”. Besides, the Cytostatic effect result in the data set with CEM-SS cells [3] (50 nM) is “cytostatic”.
The compound `CC(=O)O[C@@]12C[C@@H](C)[C@@]3(O)[C@@H](C=C(CO)C[C@]4(O)C(=O)C(C)=C[C@@H]34)[C@@H]1C2(C)C` [prostratin] gave a viability in the data set “in vitro” of more than 90%. In the data set on CEM-SS cells [4], the “Cell viability, infected cultures” value is “greater than 90%”. Also, the “Inhibition of binding of epidermal growth factor” value in the data set on C3H10T1/2 cells [5] was “induces both of these responses”. Also, the EC50 with C3H10T1/2 cells [1] turned out to be 1100 nM. Also, the minimal effective concentration (in data set [6]; in the data set with HIV-1 p24) was not above 1 µg/mL in each case. In addition, the “Growth-inhibitory (cytostatic) effect on uninfected control cultures” value in the data set on CEM-SS cells [3] (1.0-200 μg/ml, uninfected CEM-SS, 6 days) is reported as “marked growth-inhibitory, or cytostatic, effect”. The Ki in the data set on CEM-SS cells [7] (10% fetal calf serum, one experiment) worked out at 190 nM; with CEM-SS cells [7] (without serum, 30 min at 37° C, mean±range, 2 experiments), 210 ± 30 nM. For the same compound, the Tumor promoting activity result is recorded as “substantially lacks tumor promoting activity” in data set [8] (general statement, no test described) and “not a tumor promoter” in data set [8] (reported, Zayed et al. 1977).
Consider “[^3 H]phorbol 12,13-dibutyrate [[^3 H]PDBu, reference compound]”, for which the “Bmax in CEM-SS cells” value with CEM-SS cells [7] (mean±range, 2 experiments) came out at 1.2±0.1 pmol/mg protein. In addition, the Kd in the data set on CEM-SS cells [7] (mean±range, 2 experiments, read-out: Binding affinity in CEM-SS cells) was found to be 4.9 ± 0.8 nM.

The record behind these values is US5599839A, “Antiviral composition” (The United States of America as represented by the …, priority 1995, dated 1997).
